Assay type in all cases: in vivo, male Wistar rats
The test system of assay [1] is DEN-induced hepatic neoplasia in rats. In words: Serum ALT and AST biochemical analysis in DEN-induced HCC rats. Particulars: P<0.05, one-way ANOVA, Tukey. As to the method:
(§1) A modified version of the protocol described by DePeralta et al. (2016) and Schiffer et al. (2005) was used here to establish the hepatocarcinogenesis model.
On the first 15 weeks, the control PBS group was treated with 1×PBS, whereas the experimental groups were given an intraperitoneal injection (IP) of 50 mg/kg of diethylnitrosoamine (DEN, Sigma Aldrich), a widely used chemical for inducing cancer, once a week. DEN was diluted with 1×PBS. Following a one-week break (week 16), the next three weeks (weeks 17 to 19) of treatment commenced. All drugs were administrated by oral gavage. […] For the HCC+sorafenib group, the drug (Carbosynth Limited) was administered at a dose of 10 mg/kg, five days a week. For the HCC+safranal group, the drug (Sigma Aldrich) was administered at a dose of 200 mg/kg, five days a week. For the HCC+safranal+sorafenib group, the drugs were administered at a dose of 200 mg/kg safranal+10 mg/kg sorafenib, five days a week. Both safranal and sorafenib were diluted with 1×PBS and drops of Tween 80. […] After 24-hours from last treatment, the rats were euthanized by mild diethyl ether and dissected in equal conditions. […]
Alanine Transaminase (ALT), and Aspartate Aminotransferase (AST) assays were performed using commercial kits (Abcam), according to the protocol provided. ALT and AST activities were measured spectrophotometrically using Epoch by BioTek.

The test system is the same in assay [2]. The assay is described as follows: Liver gross examination and number of liver nodules. As to the method:
as §1
On the first 15 weeks, the control PBS group was treated with 1×PBS, whereas the experimental groups were given an intraperitoneal injection (IP) of 50 mg/kg of diethylnitrosoamine (DEN, Sigma Aldrich), a widely used chemical for inducing cancer, once a week. DEN was diluted with 1×PBS. Following a one-week break (week 16), the next three weeks (weeks 17 to 19) of treatment commenced. All drugs were administrated by oral gavage. […] For the HCC+sorafenib group, the drug (Carbosynth Limited) was administered at a dose of 10 mg/kg, five days a week. For the HCC+safranal group, the drug (Sigma Aldrich) was administered at a dose of 200 mg/kg, five days a week. For the HCC+safranal+sorafenib group, the drugs were administered at a dose of 200 mg/kg safranal+10 mg/kg sorafenib, five days a week. Both safranal and sorafenib were diluted with 1×PBS and drops of Tween 80. […] After 24-hours from last treatment, the rats were euthanized by mild diethyl ether and dissected in equal conditions. Blood and whole liver were collected.

For assay [3] the test system is unchanged. The assay is described as follows: Histology (H&E), area of neoplastic foci (AHF). Particulars: H&E sections; FIG. 5; P<0.05. On the procedure: as §1
(§2) On the first 15 weeks, the control PBS group was treated with 1×PBS, whereas the experimental groups were given an intraperitoneal injection (IP) of 50 mg/kg of diethylnitrosoamine (DEN, Sigma Aldrich), a widely used chemical for inducing cancer, once a week. DEN was diluted with 1×PBS. Following a one-week break (week 16), the next three weeks (weeks 17 to 19) of treatment commenced. All drugs were administrated by oral gavage. All doses were chosen according to literature (Alsaied et al., 2014; Karafakioğlu et al., 2017). For the HCC+sorafenib group, the drug (Carbosynth Limited) was administered at a dose of 10 mg/kg, five days a week. For the HCC+safranal group, the drug (Sigma Aldrich) was administered at a dose of 200 mg/kg, five days a week. For the HCC+safranal+sorafenib group, the drugs were administered at a dose of 200 mg/kg safranal+10 mg/kg sorafenib, five days a week. Both safranal and sorafenib were diluted with 1×PBS and drops of Tween 80. […] After 24-hours from last treatment, the rats were euthanized by mild diethyl ether and dissected in equal conditions. Blood and whole liver were collected. […]

For assay [4] the test system is unchanged. The assay is described as follows: Reticulin staining of liver sections. The note with it: reticulin-stained sections; FIG. 6. On the procedure: as §1, §2
A further assay concerns PCNA. The assay is described as follows: Western blot of proliferation-related protein PCNA in liver. Particulars: normalized to total protein, n=4, P<0.05, FIG. 7. On the procedure: as §1
(§3) On the first 15 weeks, the control PBS group was treated with 1×PBS, whereas the experimental groups were given an intraperitoneal injection (IP) of 50 mg/kg of diethylnitrosoamine (DEN, Sigma Aldrich), a widely used chemical for inducing cancer, once a week. DEN was diluted with 1×PBS. Following a one-week break (week 16), the next three weeks (weeks 17 to 19) of treatment commenced. All drugs were administrated by oral gavage. All doses were chosen according to literature (Alsaied et al., 2014; Karafakioğlu et al., 2017). […]
(§4) One hundredth gm (10 mg) liver was homogenized using 200 μl RIPA buffer (Sigma Aldrich) mixed with 2 μl protease inhibitor and 2 μl phosphatase inhibitor (Sigma Aldrich), and centrifuged at 4° C., 15,000 rpm for 15 minutes. […] Protein concentration was measured by Pierce BCA Protein Assay Kit with Promega GloMax Discover. […] Band density and quantification was done using ImageJ (Amin et al., 2011). […]
(§5) Due to technical reasons, total protein was used in this study as the loading control instead of the other common markers like GAPDH, β-tubulin, and β-actin. […] Ten internal controls were used, and their expressions were determined using RT-PCR. […]
In general terms: In western blotting, separated proteins are transferred to a membrane and probed.

In the next assay the test system is Cdk1, Cyclin B1, Cdc25B. The assay is described as follows: Western blot of cell cycle-related proteins in liver. On the procedure:
as §1, §3, §4, §5

Assay [5] has as its system Bcl-2, Bax, Pro-Caspase-9, Pro-Caspase-3, PARP. In words: Western blot of intrinsic apoptosis-related proteins in liver. As to the method: as §1
On the first 15 weeks, the control PBS group was treated with 1×PBS, whereas the experimental groups were given an intraperitoneal injection (IP) of 50 mg/kg of diethylnitrosoamine (DEN, Sigma Aldrich), a widely used chemical for inducing cancer, once a week. DEN was diluted with 1×PBS. Following a one-week break (week 16), the next three weeks (weeks 17 to 19) of treatment commenced. All drugs were administrated by oral gavage. All doses were chosen according to literature (Alsaied et al., 2014; Karafakioğlu et al., 2017). For the HCC+sorafenib group, the drug (Carbosynth Limited) was administered at a dose of 10 mg/kg, five days a week. For the HCC+safranal group, the drug (Sigma Aldrich) was administered at a dose of 200 mg/kg, five days a week. For the HCC+safranal+sorafenib group, the drugs were administered at a dose of 200 mg/kg safranal+10 mg/kg sorafenib, five days a week. Both safranal and sorafenib were diluted with 1×PBS and drops of Tween 80. […] After 24-hours from last treatment, the rats were euthanized by mild diethyl ether and dissected in equal conditions. Blood and whole liver were collected.
One hundredth gm (10 mg) liver was homogenized using 200 μl RIPA buffer (Sigma Aldrich) mixed with 2 μl protease inhibitor and 2 μl phosphatase inhibitor (Sigma Aldrich), and centrifuged at 4° C., 15,000 rpm for 15 minutes. Whole cell lysate was taken and stored at −80° C. Protein concentration was measured by Pierce BCA Protein Assay Kit with Promega GloMax Discover. A total of 35 μg of protein was loaded on a sodium dodecyl sulfate-polyacrylamide gel electrophoresis gel. […] Band density and quantification was done using ImageJ (Amin et al., 2011). […]
as §5

As for `CC1=C(C=O)C(C)(C)CC=C1` [safranal, 2,6,6-trimethyl-1,3-cyclohexadiene-1-carboxaldehyde], the “ALT levels as compared to HCC group” value in assay [1] is “significantly (P<0.05) decreased ALT levels”. Moreover, in assay [2] (FIG. 3), the “lesions comparing to treatment with sorafenib alone” value is listed as “dramatically decreased lesions”. Besides, the “number of liver nodules / lesions comparing to HCC animals” value in assay [2] (week 20, FIG. 2, FIG. 3) is “reduced lesions”. The “area of neoplastic foci / restoration of normal liver architecture” value in assay [3] is recorded as “seems to enhance (P<0.05) the restoration of the normal architecture of the liver”. For the same molecule, the “reticular fibers' breakage and morphology comparing to HCC group” value in assay [4] is “reduced reticular fibers' breakage and restored their morphology”. Further, the PCNA expression result in the assay with PCNA is reported as “significantly downregulated PCNA”. The “Cdk1, cyclin B1, Cdc25B decrease versus sorafenib alone” value with Cdk1, Cyclin B1, Cdc25B (FIG. 9) was “showed a greater decrease than treatment with sorafenib alone”. Moreover, in the assay on Cdk1, Cyclin B1, Cdc25B (P<0.05, FIG. 8, FIG. 9), the “Cdk1, cyclin B1, Cdc25B levels comparing to HCC animals” value is listed as “significantly decreased their levels”. In addition, in assay [5] (FIG. 10, FIG. 11), the “expression of the anti-apoptotic protein Bcl-2 compared to HCC groups” value was “significantly (P<0.05) decreased” and the “expression of the pro-apoptotic protein Bax compared to HCC groups” value was “significantly (P<0.05) increased”. Further, the “expression of pro-caspases-9 & 3 and whole PARP compared to HCC group” value in assay [5] (P<0.05, FIG. 12) is “significantly decreased”.

For the origin of these results see patent US10568873B1, “Safranal-sorafenib combination therapy for liver cancer” (United Arab Emirates University, priority 2019, dated 2020).
